Data published in PMC10644342, “Improved Antibacterial Activity of 1,3,4-Oxadiazole-Based Compounds That Restrict Staphylococcus aureus Growth Independent of LtaS Function” (ACS Infectious Diseases, 2023).
Values after ≈ are worked out from the molar mass of the structure shown.

Experiments:
[1] = test system: MRSA strain LAC; assay: Time-kill kinetic analysis; type: cell-based, Staphylococcus aureus; details: for effect on growth of LAC: 1× MIC, 24 h, inoculum 5 × 10^5 cfu
Description: Overnight cultures of MRSA strain LAC were subcultured 1:200 and grown to the exponential phase in fresh MHB. These cultures were subsequently diluted to give 500 μL of MHB containing 5 × 10^5 cfu. […] These suspensions were incubated for 24 h at 37 °C, with 50 μL of the suspension serially diluted 1:10 in 450 μL of phosphate buffered saline (PBS) and plated out on TSA at times 0, 1, 2, 4, 6, and 24 h for enumeration.

[2] = test system: MRSA strain LAC; assay: Minimum bactericidal concentration; type: cell-based, Staphylococcus aureus; details: for classification bactericidal/bacteriostatic: time kill and MBC
Description: For an antibiotic with an MBC ≤ 4×, the MIC was considered to be bactericidal, whereas with an MBC > 4×, the MIC was considered to be bacteriostatic.[24] […] Percentage survival was calculated according to the starting inoculum of 5 × 10^5 cfu at time 0 h.

[3] = test system: LTA; assay: LTA quantification by Western blot; type: cell-based, Staphylococcus aureus; details: strain LAC, 1× and 4× the MIC
Description: Overnight cultures of S. aureus strains were diluted 1:200 in fresh TSB and grown to an optical density of OD600nm 0.3. […] Vancomycin and daptomycin at 1× and 4× MIC were also included as control antibiotics. Cells were then normalized to have 10 mL of OD600nm 0.6, pelleted at 4000 rpm, and resuspended in 300 μL of PBS containing 200 μg/mL lysostaphin. This suspension was then incubated at 37 °C for 45 min to allow digestion of the cell wall to occur. One hundred microlitres of 4× SDS sample buffer were then added, and the mixture was boiled at 95 °C for 20 min. The insoluble material was then removed by pelleting at 16,000 rpm for 10 min. The supernatant containing LTA was then subjected to SDS-PAGE on a 4–20% Tris-glycine gel (Bio-Rad). The gel was transferred onto a PVDF membrane using a Trans-Blot Turbo Transfer System (Bio-Rad). The membrane was blocked overnight in TBST containing 5% semi-skimmed milk before being incubated with a mouse anti-LTA antibody (Hycult; HM2048; 1:2000 dilution) followed by a goat antimouse-HRP secondary antibody (Proteintech; SA00001; 1:2000 dilution) before being visualized using an Amersham-ECL kit (Cytiva).

[4] = test system: S. aureus wild type, clpX, ltaS, tarO mutants and ltaS overexpression strains; assay: MIC against LtaS deletion and overexpression strains; type: cell-based, Staphylococcus aureus
Description: S. aureus, S. epidermidis, E. faecalis, and E. faecium strains were routinely cultivated on tryptic soy agar (TSA) and grown for 18 h at 37 °C. S. aureus single colonies were subsequently transferred into 2 mL of tryptic soy broth (TSB) and grown for a further 18 h at 37 °C while being shaken at 180 rpm. S. pyogenes, S. agalactiae, and S. dysgalactiae strains were routinely cultured on TSA supplemented with 5% sheep blood and grown for 18 h at 37 °C with 5% CO2. E. coli was grown in LB broth at 37 °C. For LtaS-deficient strains, TSB was supplemented with 0.5 M NaCl to provide an osmotically balanced environment and instead grown at 30 °C. For strains harboring the pRMC2 tetracycline inducible vector,[61] the growth medium was supplemented with 10 μg/mL chloramphenicol and […] anhydrotetracycline hydrochloride (Sigma). Phenylalanine-arginine β-naphthylamide (PAβN) (Sigma) was dissolved in sterile water.
B. subtilis, staphylococcal, and enterococcal strains were grown in Mueller Hinton broth (MHB), while streptococcal strains were grown in MHB supplemented with 5% laked horse blood. All strains were grown for 18 h at 37 °C. The overnight cultures were subsequently subcultured 1:200 and grown to the exponential phase (OD600nm = 0.5–0.6) in fresh broth. 1771 and its derivatives 9–14 were reconstituted in DMSO and further diluted by performing a 1:2 serial dilution ranging between 256 and 0.125 μg/mL in a 96-well microtiter plate. One hundred microliters of 0.5 McFarland standardized inoculum (approximately equal to 5 × 10^5 cfu) were then dispensed into each well in the 96-well microtiter plate. The plate was incubated for 18 h at 37 °C.
For overexpression studies, full-length ltaS was amplified by PCR using MRSA strian LAC genomic DNA, primer pair LtaS-FW: 5′-[…]-3′ and LtaS-RV: 5′-[…]-3′, and Phusion High-Fidelity DNA Polymerase (Thermo Fisher). The resulting PCR product was cloned into the tetracycline inducible plasmid pRMC2 using SacI and KpnI restriction sites and T4 ligase (NEB). The cloned vector was subsequently transformed into RN4220 followed by LAC through electroporation.

[5] = test system: erythrocytes; assay: Erythrocyte toxicity (hemolysis) assay; type: cell-based, human; details: concentrations as high as 256 μg/mL, 1 h, 37 °C
Description: Consent was collected from three healthy volunteers prior to blood collection and in accordance with the recommendations of the University of Bath, Research Ethics Approval Committee for Health Blood (EP 18/19108). Blood was collected by venepuncture and drawn directly into K2-EDTA-coated Vacutainer tubes (BD Biosciences) to prevent coagulation. The blood was then pelleted at 500g for 10 min at 4 °C, and the plasma layer was removed. The remaining hematocrit was resuspended to the original volume in a sterile saline solution. This procedure was repeated three times and finally resuspended in sterile PBS and diluted to 2% (v/v). One hundred microlitres of the resulting blood suspension were aliquoted in a 96-well microtire plate. An equal volume of either 1771 or 13 (diluted in PBS) was then added at a concentration range of 256–2 μg/mL and incubated for 1 h at 37 °C. Blood incubated with PBS served as a negative control, and total hemolysis (positive control) was provided by incubating the cells in 2% (v/v) Triton X-100. Following incubation, the 96-well microtire plate was pelleted at 500g for 5 min, and 100 μL of supernatant was transferred into a new plate. Absorbance at abs404nm was measured using a Sunrise plate reader, and percentage hemolysis was calculated according to controls.

[6] = Staphylococcus aureus, 8325-4 (wild type), clpX set
[7] = Staphylococcus aureus, NEWMAN, Newman ΔtarO
[8] = Staphylococcus aureus, NEWMAN, Newman ΔtarO pRMC2 (empty vector)
[9] = Staphylococcus aureus, NEWMAN, Newman ΔtarO pltaS (ltaS overexpression)
[10] = Staphylococcus aureus, SA564 (wild type)
[11] = Staphylococcus aureus, SA564 clpX knockout mutant

SMILES	effect on growth of LAC [1]	classification bactericidal/bacteriostatic [2]	LTA signal by Western blot [3]	MIC [4, 6] [µg/mL]	MIC ([4]; Staphylococcus aureus, NEWMAN) [µg/mL]	MIC [4, 7] [µg/mL]	MIC [4, 8] [µg/mL]	MIC [4, 9] [µg/mL]	MIC [4, 10] [µg/mL]	MIC [4, 11] [µg/mL]	erythrocyte lysis [5]	further results
O=C(COC(=O)Cc1coc2ccc3ccccc3c12)Nc1nnc(-c2ccc(S(F)(F)(F)(F)F)cc2)o1 [Compound 13, 2-Oxo-2-((5-(4-(pentafluoro-l6-sulfaneyl)phenyl)-1,3,4-oxadiazol-2-yl)amino)ethyl 2-(Naphtho[2,1-b]furan-1-yl)acetate]	completely inhibited the growth	bacteriostatic	reduction in LTA abundance	0.5 to 1 (≈ 0.903 to 1.81 µM)	1 (≈ 1.81 µM)	1 (≈ 1.81 µM)	1 (≈ 1.81 µM)	1 (≈ 1.81 µM)	0.25 (≈ 0.452 µM)	0.25 (≈ 0.452 µM)	neither caused any lysis	starting inoculum surviving the exposure ([1]; 4× MIC, LAC): 1%; minimal bactericidal concentration (MBC) ([2]; 8 to 128 μg/mL (up to 256× MIC)): could not be elucidated; MIC ([4]; 8325-4 (wild type), clpX set): 0.5 to 1 µg/mL; MIC ([4]; SA564clpX knockout and ltaSH476Q mutant): 0.25 µg/mL (≈ 0.452 µM); MIC ([4]; Staphylococcus aureus, 8325-4 clpX knockout and ltaS382STOP mutant): 0.25 µg/mL (≈ 0.452 µM); MIC ([4]; Staphylococcus aureus, 8325-4 clpX knockout mutant): 0.25 µg/mL (≈ 0.452 µM); MIC ([4]; Staphylococcus aureus, JE2 clpXI265E mutant): 0.25 µg/mL (≈ 0.452 µM)
O=C(COC(=O)Cc1coc2ccc3ccccc3c12)Nc1nnc(-c2ccccc2)o1 [Compound 1771, 2-Oxo-2-((5-phenyl-1,3,4-oxadiazol-2-yl)amino)ethyl 2-(Naphtho[2,1-b]furan-1-yl)acetate, reference compound]	completely inhibited the growth	bacteriostatic	reduction in LTA abundance	16 (≈ 37.4 µM)	16 (≈ 37.4 µM)	16 (≈ 37.4 µM)	16 (≈ 37.4 µM)	16 (≈ 37.4 µM)	16 (≈ 37.4 µM)	16 (≈ 37.4 µM)	neither caused any lysis	killing effect ([1]; 4× MIC, LAC): roughly 65%; MIC ([4]; Staphylococcus aureus, JE2 (wild type)): 16 µg/mL (≈ 37.4 µM); MIC ([4]; Staphylococcus aureus, JE2 clpXI265E and ltaS339STOP mutant): 16 µg/mL (≈ 37.4 µM); MIC ([4]; Staphylococcus aureus, SA564clpX knockout and ltaSH476Q mutant): 16 µg/mL (≈ 37.4 µM)
